Assay results from PubChem BioAssay (NCI).
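These data come from cells grown in 96-well plates and exposed to compound for 48 hours at five concentrations. GI50 marks 50% less growth. TGI marks complete inhibition of growth.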

Experiments:
Experiment in all cases: growth of human tumour cells (NCI), 48 h
[1] = system: SW-620 colon
[2] = system: RPMI-8226 leukemia
[3] = system: CCRF-CEM leukemia
[4] = system: OVCAR-3 ovarian
[5] = system: COLO 205 colon
[6] = system: K-562 leukemia
[7] = system: SR leukemia
[8] = system: NCI-H522 lung
[9] = system: A498 renal
[10] = system: HL-60(TB) leukemia
[11] = system: MDA-MB-231 breast
[12] = system: SNB-19 CNS
[13] = system: SK-MEL-28 melanoma
[14] = system: KM12 colon
[15] = system: HS 578T breast
[16] = system: SK-OV-3 ovarian
[17] = system: M14 melanoma
[18] = system: HCC-2998 colon
[19] = system: T-47D breast
[20] = system: LOX IMVI melanoma
[21] = system: MCF7 breast
[22] = system: OVCAR-8 ovarian
[23] = system: HCT-116 colon
[24] = system: NCI-H23 lung
[25] = system: SF-268 CNS
[26] = system: CAKI-1 renal
[27] = system: DU-145 prostate
[28] = system: UACC-257 melanoma
[29] = system: SK-MEL-5 melanoma
[30] = system: NCI-H460 lung
[31] = system: HOP-92 NSCLC
[32] = system: MOLT-4 leukemia
[33] = system: UO-31 renal
[34] = system: OVCAR-4 ovarian
[35] = system: HCT-15 colon
[36] = system: SK-MEL-2 melanoma
[37] = system: SN12C renal
[38] = system: TK-10 renal
[39] = system: EKVX NSCLC
[40] = system: IGROV1 ovarian
[41] = system: RXF 393 renal
[42] = system: U251 CNS
[43] = system: MDA-MB-435
[44] = system: OVCAR-5 ovarian
[45] = system: HT29 colon
[46] = system: HOP-62 NSCLC
[47] = system: A549 NSCLC
[48] = system: PC-3 prostate
[49] = system: NCI-H226 lung
[50] = system: SF-539 CNS
[51] = system: ACHN renal
[52] = system: UACC-62 melanoma
[53] = system: 786-0 renal
[54] = system: NCI/ADR-RES ovarian
[55] = system: MALME-3M melanoma
[56] = system: SF-295 CNS
[57] = system: BT-549 breast

Question: With COc1ccc2c(c1)C(=Nc1ccc(F)c(F)c1F)c1c-2c(Nc2ccc(F)c(F)c2F)nc2ccccc12 as the compound, how does the GI50 [1] read?
Answer: > 59.3 µM

Question: And the TGI [1]?
Answer: > 100 µM

Question: And the GI50 [2]?
Answer: 42.7 µM

Question: What about the TGI [2] of the same compound?
Answer: > 100 µM

Question: What about the GI50 [3] of the same compound?
Answer: 46.3 µM

Question: What about the TGI [3] of the same compound?
Answer: > 100 µM

Question: What about the GI50 [4] of the same compound?
Answer: 46.6 µM

Question: What about the TGI [4] of the same compound?
Answer: > 89.1 µM

Question: And the GI50 [5]?
Answer: 38.8 µM

Question: What about the TGI [5] of the same compound?
Answer: > 100 µM

Question: And the GI50 [6]?
Answer: 29.5 µM

Question: And the TGI [6]?
Answer: > 100 µM

Question: What about the TGI [7] of the same compound?
Answer: 1.41 µM

Question: And the GI50 [8]?
Answer: 59.8 µM

Question: What about the TGI [8] of the same compound?
Answer: > 100 µM

Question: What about the GI50 [9] of the same compound?
Answer: 17.2 µM

Question: What about the TGI [9] of the same compound?
Answer: 53.7 µM

Question: And the TGI [10]?
Answer: 0.0392 µM

Question: What about the GI50 [11] of the same compound?
Answer: 26.6 µM

Question: What about the TGI [11] of the same compound?
Answer: > 60.1 µM

Question: And the GI50 [12]?
Answer: 33.1 µM

Question: And the TGI [12]?
Answer: > 100 µM

Question: And the GI50 [13]?
Answer: 28 µM

Question: And the TGI [13]?
Answer: > 100 µM

Question: What about the GI50 [14] of the same compound?
Answer: > 71.1 µM

Question: What about the TGI [14] of the same compound?
Answer: > 100 µM

Question: And the GI50 [15]?
Answer: 22 µM

Question: What about the TGI [15] of the same compound?
Answer: > 100 µM

Question: And the GI50 [16]?
Answer: 16.3 µM

Question: What about the TGI [16] of the same compound?
Answer: 61.7 µM

Question: What about the GI50 [17] of the same compound?
Answer: 27.7 µM

Question: What about the TGI [17] of the same compound?
Answer: > 100 µM

Question: What about the GI50 [18] of the same compound?
Answer: > 100 µM

Question: And the TGI [18]?
Answer: > 100 µM

Question: What about the GI50 [19] of the same compound?
Answer: > 100 µM

Question: And the TGI [19]?
Answer: > 100 µM

Question: What about the GI50 [20] of the same compound?
Answer: > 60.5 µM

Question: And the TGI [20]?
Answer: > 100 µM

Question: And the GI50 [21]?
Answer: 44 µM

Question: What about the TGI [21] of the same compound?
Answer: > 100 µM

Question: And the GI50 [22]?
Answer: 35.9 µM

Question: What about the TGI [22] of the same compound?
Answer: > 78.6 µM

Question: And the GI50 [23]?
Answer: 31.8 µM

Question: And the TGI [23]?
Answer: > 100 µM

Question: And the GI50 [24]?
Answer: > 36.1 µM

Question: And the TGI [24]?
Answer: > 62.2 µM

Question: What about the GI50 [25] of the same compound?
Answer: 36.8 µM

Question: And the TGI [25]?
Answer: > 100 µM

Question: What about the GI50 [26] of the same compound?
Answer: > 57.2 µM

Question: What about the TGI [26] of the same compound?
Answer: > 100 µM

Question: And the GI50 [27]?
Answer: 49.8 µM

Question: And the TGI [27]?
Answer: > 100 µM

Question: And the GI50 [28]?
Answer: > 100 µM

Question: And the TGI [28]?
Answer: > 100 µM

Question: And the GI50 [29]?
Answer: > 74.4 µM

Question: And the TGI [29]?
Answer: > 100 µM

Question: What about the GI50 [30] of the same compound?
Answer: > 75.5 µM

Question: What about the TGI [30] of the same compound?
Answer: > 100 µM

Question: What about the GI50 [31] of the same compound?
Answer: 48 µM

Question: And the TGI [31]?
Answer: > 100 µM

Question: What about the GI50 [32] of the same compound?
Answer: 24.2 µM

Question: And the TGI [32]?
Answer: > 100 µM

Question: What about the GI50 [33] of the same compound?
Answer: > 89.3 µM

Question: And the TGI [33]?
Answer: > 100 µM

Question: What about the GI50 [34] of the same compound?
Answer: 27.8 µM

Question: And the TGI [34]?
Answer: > 55.6 µM

Question: And the GI50 [35]?
Answer: 49 µM

Question: What about the TGI [35] of the same compound?
Answer: > 100 µM

Question: And the GI50 [36]?
Answer: 23.8 µM

Question: And the TGI [36]?
Answer: > 100 µM

Question: What about the GI50 [37] of the same compound?
Answer: > 58.6 µM

Question: And the TGI [37]?
Answer: > 100 µM

Question: What about the GI50 [38] of the same compound?
Answer: 25.4 µM

Question: And the TGI [38]?
Answer: > 90.9 µM

Question: And the GI50 [39]?
Answer: > 79.5 µM

Question: What about the TGI [39] of the same compound?
Answer: > 100 µM

Question: And the GI50 [40]?
Answer: 15.9 µM

Question: What about the TGI [40] of the same compound?
Answer: > 72.9 µM

Question: And the GI50 [41]?
Answer: 17.2 µM

Question: And the TGI [41]?
Answer: 56.5 µM

Question: What about the GI50 [42] of the same compound?
Answer: 28.2 µM

Question: What about the TGI [42] of the same compound?
Answer: > 64.3 µM

Question: And the GI50 [43]?
Answer: > 70.7 µM

Question: And the TGI [43]?
Answer: > 100 µM

Question: What about the GI50 [44] of the same compound?
Answer: > 46.6 µM

Question: And the TGI [44]?
Answer: > 100 µM

Question: And the GI50 [45]?
Answer: 36.6 µM

Question: And the TGI [45]?
Answer: > 100 µM

Question: What about the GI50 [46] of the same compound?
Answer: 14.6 µM

Question: And the TGI [46]?
Answer: 43.7 µM

Question: What about the GI50 [47] of the same compound?
Answer: > 59.3 µM

Question: And the TGI [47]?
Answer: > 100 µM

Question: And the GI50 [48]?
Answer: > 56.7 µM

Question: What about the TGI [48] of the same compound?
Answer: > 100 µM

Question: And the GI50 [49]?
Answer: > 44.4 µM

Question: What about the TGI [49] of the same compound?
Answer: > 84.1 µM

Question: And the GI50 [50]?
Answer: 37.7 µM

Question: What about the TGI [50] of the same compound?
Answer: > 83.6 µM

Question: And the GI50 [51]?
Answer: 41.2 µM

Question: What about the TGI [51] of the same compound?
Answer: > 100 µM

Question: And the GI50 [52]?
Answer: 23.8 µM

Question: And the TGI [52]?
Answer: > 55.1 µM

Question: And the GI50 [53]?
Answer: 27.3 µM

Question: What about the TGI [53] of the same compound?
Answer: > 68.7 µM

Question: What about the GI50 [54] of the same compound?
Answer: 37.4 µM

Question: What about the TGI [54] of the same compound?
Answer: > 82.8 µM

Question: And the GI50 [55]?
Answer: 50.6 µM

Question: And the TGI [55]?
Answer: > 100 µM

Question: What about the GI50 [56] of the same compound?
Answer: 41.3 µM

Question: And the TGI [56]?
Answer: > 100 µM

Question: And the GI50 [57]?
Answer: 36 µM

Question: And the TGI [57]?
Answer: > 65.4 µM
